Patent US8415380B2 (Hoffmann-La Roche Inc., priority 2007, dated 2013)

How the values were obtained:
[1] = target: T1, rat mGlu2 receptor (Rattus norvegicus, UniProt P31421); assay: [3H]-LY354740 binding on mGlu2 transfected CHO cell membranes; settings: 10 nM [3H]-LY354740, mGlu2 transfected CHO cell membranes, room temperature, 1 hour
T1 construct: expressed in transfected cells; membranes prepared
Description: [^3H]-LY354740 Binding on mGlu2 Transfected CHO Cell Membranes Transfection and Cell Culture
cDNA encoding the rat mGlu2 receptor protein in pBluescript II was subcloned into the eukaryotic expression vector pcDNA I-amp from Invitrogen Ltd (Paisley, UK). This vector construct (pcD1mGR^2) was co-transfected with a psvNeo plasmid encoding the gene for neomycin resistance, into CHO cells by a modified calcium phosphate method described by Chen & Okayama (1988). The cells were maintained in Dulbecco's Modified Eagle medium with reduced L-glutamine (1 mM final concentration), 36 mg/L L-Proline and 10% dialysed foetal calf serum from Gibco-Invitrogen; the medium was supplemented with 500 microM α-methyl-4-carboxyphenylglycine (MCPG). Selection was made in the presence of G-418 (300 ug/ml final concentration). Clones were identified by reverse transcription of 5 μg total RNA, followed by PCR using mGlu2 receptor specific primers 5′-[…]-3′ and 5′-[…]-3′ in 60 mM Tris HCl (pH 10), 15 mM (NH4)2SO4, 2 mM MgCl2, 25 units/ml Taq Polymerase with 30 cycles annealing at 60° C. for 1 min., extention at 72° C. for 30 s, and 1 min. 95° C. denaturation.
Cells, cultured as above, were harvested and washed three times with cold PBS and frozen at −80° C. The pellet was resuspended in cold 20 mM HEPES-NaOH buffer containing 10 mM EDTA (pH 7.4), and homogenised with a polytron (Kinematica, A G, Littau, Switzerland) for 10 s at 10 000 rpm. After centrifugation for 30 min. at 4° C., the pellet was washed once with cold 20 mM HEPES-NaOH buffer containing 0.1 mM EDTA, (pH 7.4). After a second centrifugation for 30 min. at 4° C. the pellet was resuspended in cold 20 mM HEPES-NaOH buffer containing 0.1 mM EDTA, (pH 7.4). Protein content was measured using the Micro BCA method from Pierce-Perbio (Rockford, Ill., USA) using bovine serum albumin as standard.
After thawing, the membranes were resuspended in cold 50 mM Tris-HCl buffer containing 2 mM MgCl2 (pH 7.4) (binding buffer). The final concentration of the membranes in the assays was 25 μg protein/ml. Inhibition experiments were performed with membranes incubated with 10 nM [^3H]-LY354740 at room temperature, for 1 hour, in presence of various concentrations of the compound to be tested. Following the incubations, membranes were filtered onto Whatmann GF/B glass fiber filters or onto GF/B Unifilter plates and washed 5 times with cold binding buffer. Non specific binding was measured in the presence of 10 μM (2S,2′R,3′R)-2-(2′3′-Dicarboxycyclopropyl)glycine (DCG IV from Tocris, Ellisville, Mo. USA). After transfer of the filters into plastic vials containing 10 ml of Ultima-gold scintillation fluid from Perkin-Elmer (Boston, Mass., USA), the radioactivity was measured by liquid scintillation in a Tri-Carb 2500 TR counter (Packard, Zurich, Switzerland). For 96-Unifilter plates the radioactivity was measured after addition of Microscint 40 scintillation fluid (Perkin Elmer, Boston Mass.) using a TopCount NXT (Packard)
The inhibition curves were fitted with a four parameter logistic equation giving IC50 values, and Hill coefficients.

T1 sequence (P31421 19-872): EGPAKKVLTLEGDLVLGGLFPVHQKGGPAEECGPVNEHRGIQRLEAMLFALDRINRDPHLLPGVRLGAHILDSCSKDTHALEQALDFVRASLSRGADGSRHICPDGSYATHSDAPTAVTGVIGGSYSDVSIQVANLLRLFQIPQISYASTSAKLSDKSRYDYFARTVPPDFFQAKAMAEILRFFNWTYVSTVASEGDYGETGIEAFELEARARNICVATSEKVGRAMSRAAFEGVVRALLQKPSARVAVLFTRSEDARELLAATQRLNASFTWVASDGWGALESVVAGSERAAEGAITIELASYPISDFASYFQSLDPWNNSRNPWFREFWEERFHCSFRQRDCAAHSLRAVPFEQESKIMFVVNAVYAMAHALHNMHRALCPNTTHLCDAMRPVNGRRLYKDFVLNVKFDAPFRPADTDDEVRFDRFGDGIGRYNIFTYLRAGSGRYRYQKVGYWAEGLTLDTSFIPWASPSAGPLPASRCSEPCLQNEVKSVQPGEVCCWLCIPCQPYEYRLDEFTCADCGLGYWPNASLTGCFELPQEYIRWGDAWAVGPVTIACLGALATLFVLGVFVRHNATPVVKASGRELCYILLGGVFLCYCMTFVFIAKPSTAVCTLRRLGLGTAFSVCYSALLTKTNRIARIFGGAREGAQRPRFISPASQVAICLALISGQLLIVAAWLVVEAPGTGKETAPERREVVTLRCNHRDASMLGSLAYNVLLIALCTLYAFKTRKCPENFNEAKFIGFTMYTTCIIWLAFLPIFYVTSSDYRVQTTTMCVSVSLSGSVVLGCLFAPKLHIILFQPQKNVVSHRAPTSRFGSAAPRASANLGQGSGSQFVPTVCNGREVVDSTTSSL

For Nc1ccc(-c2cccc(-c3nc(-c4ccc(C(F)(F)F)nc4)cc(C(F)(F)F)n3)c2)cn1 [Example 12, 5-{3-[4-Trifluoromethyl-6-(6-trifluoromethyl-pyridin-3-yl)-pyrimidin-2-yl]-phenyl}-pyridin-2-ylamine], the melting point was 244 °C and the Ki [1] was 3.3 nM.
For Cc1cc(-c2ccc(C(F)(F)F)nc2)cc(-c2cccc(-c3ccc(N)nc3)c2)n1 [Example 33, 5-[3-(6′-Methyl-6-trifluoromethyl-[3,4′]bipyridinyl-2′-yl)-phenyl]-pyridin-2-ylamine], the melting point was 124 to 125 °C and the Ki [1] was 42 nM.
Work on Cc1cc(-c2ccc(C(F)(F)F)nc2)cc(-c2cccc(-c3cccc(S(=O)(=O)NC(C)(C)C)c3)n2)n1 [Example 29, N-tert-Butyl-3-(6′-methyl-6″-trifluoromethyl-[2,2′;4′,3″]terpyridin-6-yl)-benzenesulfonamide] yielded a melting point of 187 to 188 °C and a Ki [1] of 26 nM.
In the case of NS(=O)(=O)c1cccc(-c2cn(-c3nc(-c4ccc(Cl)s4)cc(C(F)(F)F)n3)cn2)c1 [Example 1, 3-{1-[4-(5-Chloro-thiophen-2-yl)-6-trifluoromethyl-pyrimidin-2-yl]-1H-imidazol-4-yl}-benzenesulfonamide], the melting point is reported as 189 °C and the Ki [1] is reported as 11.6 nM.
Compound Nc1ccc(-c2cc(-c3nc(-c4ccc(C(F)(F)F)nc4)cc(C(F)(F)F)n3)ccn2)cn1 [Example 8, 4-[4-Trifluoromethyl-6-(6-trifluoromethyl-pyridin-3-yl)-pyrimidin-2-yl]-[2,3′]bipyridinyl-6′-ylamine] has a melting point of 261.5 °C and a Ki [1] of 15.6 nM.
In the case of NS(=O)(=O)c1ccc(-c2cc(-c3nc(-c4ccc(C(F)(F)F)nc4)cc(C(F)(F)F)n3)ccn2)s1 [Example 10, 5-{4-[4-Trifluoromethyl-6-(6-trifluoromethyl-pyridin-3-yl)-pyrimidin-2-yl]-pyridin-2-yl}-thiophene-2-sulfonic acid amide], the melting point is reported as 262.5 °C and the Ki [1] is reported as 6.6 nM.
NS(=O)(=O)c1cccc(-c2cccc(-c3nc(-c4ccc(Cl)s4)cc(C(F)(F)F)n3)c2)c1 [Example 4, 3′-[4-(5-Chloro-thiophen-2-yl)-6-trifluoromethyl-pyrimidin-2-yl]-biphenyl-3-sulfonic acid amide] showed a melting point of 226.5 °C and a Ki [1] of 14.3 nM.
